Drawing on patent US6423689B1, “Peptidyl calcium channel blockers” (Warner-Lambert Company, priority 1997, dated 2002), this text covers inhibition and IC50 for 10 compounds.

In the first experiment the target is T1, N-type Ca2+ channels in IMR-32 cells (Homo sapiens, UniProt Q00975).
T1 construct: host or cells: IMR-32 cells, differentiated with dibutyryl cAMP and bromodeoxyuridine
T1 sequence (Q00975 whole entry): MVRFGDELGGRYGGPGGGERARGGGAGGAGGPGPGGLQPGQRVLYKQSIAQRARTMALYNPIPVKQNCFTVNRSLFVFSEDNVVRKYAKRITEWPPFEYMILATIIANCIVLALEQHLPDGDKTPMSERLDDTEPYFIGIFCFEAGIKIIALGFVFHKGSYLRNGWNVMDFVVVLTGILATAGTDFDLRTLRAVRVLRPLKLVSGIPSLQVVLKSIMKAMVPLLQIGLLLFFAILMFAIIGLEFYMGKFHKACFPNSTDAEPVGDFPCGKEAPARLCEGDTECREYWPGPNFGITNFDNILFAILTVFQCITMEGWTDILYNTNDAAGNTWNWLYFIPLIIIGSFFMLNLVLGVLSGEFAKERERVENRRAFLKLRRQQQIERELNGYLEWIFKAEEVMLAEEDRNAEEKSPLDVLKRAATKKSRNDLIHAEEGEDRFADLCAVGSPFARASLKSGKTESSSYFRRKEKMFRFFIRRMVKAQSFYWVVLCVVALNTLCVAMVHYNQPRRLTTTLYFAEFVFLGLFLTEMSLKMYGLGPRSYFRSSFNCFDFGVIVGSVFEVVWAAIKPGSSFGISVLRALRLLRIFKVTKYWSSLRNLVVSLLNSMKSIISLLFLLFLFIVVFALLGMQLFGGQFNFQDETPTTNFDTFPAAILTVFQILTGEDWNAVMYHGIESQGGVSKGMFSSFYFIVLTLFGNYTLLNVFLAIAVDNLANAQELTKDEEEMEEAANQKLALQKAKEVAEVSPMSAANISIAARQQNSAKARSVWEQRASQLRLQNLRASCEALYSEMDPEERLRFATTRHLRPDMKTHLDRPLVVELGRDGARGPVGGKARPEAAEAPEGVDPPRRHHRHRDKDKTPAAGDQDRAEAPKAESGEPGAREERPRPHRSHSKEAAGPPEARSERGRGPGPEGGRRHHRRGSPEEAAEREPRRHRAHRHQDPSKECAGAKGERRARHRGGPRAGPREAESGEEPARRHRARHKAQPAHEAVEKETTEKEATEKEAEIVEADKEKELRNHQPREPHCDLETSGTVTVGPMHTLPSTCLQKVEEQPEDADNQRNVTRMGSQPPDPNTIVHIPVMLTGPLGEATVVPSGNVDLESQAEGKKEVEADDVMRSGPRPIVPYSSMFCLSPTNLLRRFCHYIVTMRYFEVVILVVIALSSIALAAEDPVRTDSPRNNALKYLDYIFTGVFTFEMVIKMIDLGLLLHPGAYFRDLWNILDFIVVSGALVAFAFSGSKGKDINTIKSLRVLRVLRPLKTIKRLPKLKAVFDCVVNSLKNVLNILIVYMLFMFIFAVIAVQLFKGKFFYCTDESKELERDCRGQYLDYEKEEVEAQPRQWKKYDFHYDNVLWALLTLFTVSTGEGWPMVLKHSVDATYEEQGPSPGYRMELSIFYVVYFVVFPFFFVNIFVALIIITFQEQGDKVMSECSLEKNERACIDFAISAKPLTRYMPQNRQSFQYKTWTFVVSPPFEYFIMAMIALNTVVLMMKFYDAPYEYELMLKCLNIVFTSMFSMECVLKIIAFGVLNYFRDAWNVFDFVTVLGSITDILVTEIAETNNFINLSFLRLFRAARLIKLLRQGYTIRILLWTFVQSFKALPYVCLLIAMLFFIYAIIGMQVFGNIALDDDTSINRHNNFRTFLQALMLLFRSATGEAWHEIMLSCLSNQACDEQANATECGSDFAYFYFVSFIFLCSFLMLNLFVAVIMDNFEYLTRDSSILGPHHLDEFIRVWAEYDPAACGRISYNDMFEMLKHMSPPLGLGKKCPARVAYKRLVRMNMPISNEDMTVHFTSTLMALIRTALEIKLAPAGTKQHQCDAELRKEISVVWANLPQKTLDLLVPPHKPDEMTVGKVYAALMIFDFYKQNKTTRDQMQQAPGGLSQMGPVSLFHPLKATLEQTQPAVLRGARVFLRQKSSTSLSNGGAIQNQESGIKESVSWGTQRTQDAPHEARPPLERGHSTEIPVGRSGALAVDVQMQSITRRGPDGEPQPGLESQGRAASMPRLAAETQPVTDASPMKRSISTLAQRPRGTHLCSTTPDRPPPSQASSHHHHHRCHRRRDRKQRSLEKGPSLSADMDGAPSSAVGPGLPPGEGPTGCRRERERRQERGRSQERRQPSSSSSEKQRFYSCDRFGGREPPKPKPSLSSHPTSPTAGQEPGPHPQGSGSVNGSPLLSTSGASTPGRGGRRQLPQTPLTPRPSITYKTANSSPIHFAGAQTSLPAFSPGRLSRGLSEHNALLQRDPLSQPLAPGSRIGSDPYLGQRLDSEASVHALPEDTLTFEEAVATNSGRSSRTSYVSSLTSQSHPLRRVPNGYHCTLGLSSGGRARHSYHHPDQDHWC
T1 sequence (P54289 25-956 partner limits assumed): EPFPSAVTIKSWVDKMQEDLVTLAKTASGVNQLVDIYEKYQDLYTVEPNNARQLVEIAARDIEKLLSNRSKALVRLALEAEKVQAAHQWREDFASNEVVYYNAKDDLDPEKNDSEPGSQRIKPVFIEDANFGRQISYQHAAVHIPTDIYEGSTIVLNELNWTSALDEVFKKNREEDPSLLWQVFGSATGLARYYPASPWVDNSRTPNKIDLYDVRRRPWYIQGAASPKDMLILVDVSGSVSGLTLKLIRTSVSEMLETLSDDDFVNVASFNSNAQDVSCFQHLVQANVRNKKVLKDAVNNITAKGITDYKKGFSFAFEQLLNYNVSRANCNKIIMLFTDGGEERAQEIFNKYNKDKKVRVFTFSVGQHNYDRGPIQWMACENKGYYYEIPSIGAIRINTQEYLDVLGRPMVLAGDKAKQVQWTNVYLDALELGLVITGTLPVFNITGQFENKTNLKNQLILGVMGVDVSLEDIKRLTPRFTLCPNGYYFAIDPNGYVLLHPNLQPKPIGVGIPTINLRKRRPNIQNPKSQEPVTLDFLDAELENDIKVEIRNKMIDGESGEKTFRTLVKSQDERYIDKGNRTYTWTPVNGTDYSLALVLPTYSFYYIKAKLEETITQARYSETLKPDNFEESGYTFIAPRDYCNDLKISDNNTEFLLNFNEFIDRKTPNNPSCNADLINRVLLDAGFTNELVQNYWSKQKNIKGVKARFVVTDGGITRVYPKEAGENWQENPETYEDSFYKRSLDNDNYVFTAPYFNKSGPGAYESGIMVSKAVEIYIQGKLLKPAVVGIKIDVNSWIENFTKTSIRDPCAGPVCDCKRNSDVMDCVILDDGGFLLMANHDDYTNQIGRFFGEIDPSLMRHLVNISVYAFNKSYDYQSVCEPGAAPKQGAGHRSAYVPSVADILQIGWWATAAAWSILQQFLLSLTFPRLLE
T1 sequence (P54289 957-1103 partner limits assumed): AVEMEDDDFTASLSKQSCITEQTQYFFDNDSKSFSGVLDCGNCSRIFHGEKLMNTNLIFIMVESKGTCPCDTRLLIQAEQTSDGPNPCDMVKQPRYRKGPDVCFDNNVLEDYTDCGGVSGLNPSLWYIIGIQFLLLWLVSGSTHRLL
T1 sequence (P54284 whole entry partner): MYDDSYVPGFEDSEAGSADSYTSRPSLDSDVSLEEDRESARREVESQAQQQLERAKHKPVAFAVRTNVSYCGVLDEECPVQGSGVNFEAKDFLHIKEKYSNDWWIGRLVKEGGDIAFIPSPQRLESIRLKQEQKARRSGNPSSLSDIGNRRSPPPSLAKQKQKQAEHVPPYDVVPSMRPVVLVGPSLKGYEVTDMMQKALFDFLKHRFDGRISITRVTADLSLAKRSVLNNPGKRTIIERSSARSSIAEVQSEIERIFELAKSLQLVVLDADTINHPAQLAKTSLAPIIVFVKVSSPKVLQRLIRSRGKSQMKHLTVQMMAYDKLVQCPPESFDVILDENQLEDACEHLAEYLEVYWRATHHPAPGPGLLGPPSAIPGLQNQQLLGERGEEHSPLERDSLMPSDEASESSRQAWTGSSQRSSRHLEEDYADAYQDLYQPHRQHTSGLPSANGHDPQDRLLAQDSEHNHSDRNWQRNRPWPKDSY
The experiment in a line: Inhibition of N-type calcium flux in IMR-32 cells (Indo-1 fluorescence, nitrendipine present). It is filed as cell-based. As to conditions: IMR-32. The method, boiled down: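 Differentiated IMR-32 cells (7–13 days) were loaded with 5 μM Indo-1 AM, preincubated with compound for 10 min at 30° C, and depolarized with KCl/CaCl2 stimulation solution, with 5 μM nitrendipine blocking L-channels. Peak-minus-basal 400/490 nm emission ratio was plotted against drug concentration, and IC50 came from four-parameter logistic fits.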
(Calcium assays in cells follow changes in intracellular calcium, usually with a dye or a luminescent sensor.)
The term inhibition denotes how much of the control response was suppressed. Consider `CC(C)C[C@H](NC(=O)N1CCCCCC1)C(=O)N[C@@H](Cc1ccc(OCc2ccccc2)cc1)C(=O)N1CC(C)OC(C)C1` (stereo partly drawn) [Example 199, [S-(R*,R*)]-Azepane-1-carboxylic acid {1-[1-(4-benzyloxy-benzyl)-2-(2,6-dimethyl-morpholin-4-yl)-2-oxo-ethylcarbamoyl]-3-methyl-butyl}-amide], for which the inhibition at 1 µM is 36% and the inhibition at 10 µM came out at 86%. Taken in the same sequence, the figures for `CC(C)CC(NC(=O)N1CCCCCC1)C(=O)NC(Cc1ccc(OCc2ccccc2)cc1)C(=O)N1CCCC(C)C1` (centres unmarked) [Example 200, Azepane-1-carboxylic acid {1-[1-(4-benzyloxy-benzyl)-2-(3-methyl-piperidin-1-yl)-2-oxo-ethylcarbamoyl]-3-methyl-butyl}-amide] were 53% and 88%.

The experiment is the same for the next values; noted with them: IMR-32 cells, 5 μM nitrendipine, K+ depolarization.
What is called IC50 is the concentration that gives 50% inhibition. In the case of `CCN(CC)C(=O)C1CCCN(C(=O)C(Cc2ccc(OCc3ccccc3)cc2)NC(=O)C(CC(C)C)NC(=O)N2CCCCCC2)C1` (centres unmarked) [Example 188, Azepane-1-carboxylic acid {1-[1-(4-benzyloxy-benzyl)-2-(3-diethylcarbamoyl-piperidin-1-yl)-2-oxo-ethylcarbamoyl]-3-methyl-butyl}-amide], the IC50 worked out at 780 nM. On the same count and under the same terms, as for `CCN(CC)C(=O)C1CCCN(C(=O)C(Cc2ccc(OCc3ccccc3)cc2)NC(=O)C(CC(C)C)NC(=O)N2CCCCCC2)C1` (centres unmarked) [Example 189, Azepane-1-carboxylic acid {1-[1-(4-benzyloxy-benzyl)-2-(3-diethylcarbamoyl-piperidin-1-yl)-2-oxo-ethylcarbamoyl]-3-methyl-butyl}-amide], the figure is 940 nM; as for `CC(C)CC(NC(=O)N1CCCCCC1)C(=O)NC(Cc1ccc(OCc2ccccc2)cc1)C(=O)NCC(O)c1ccccc1` (centres unmarked) [Example 190, Azepane-1-carboxylic acid {1-[2-(4-benzyloxy-phenyl)-1-(2-hydroxy-2phenyl-ethylcarbamoyl)-ethylcarbamoyl]-3-methyl-butyl}-amide], 790 nM. Still for that read-out and setting: as for `CC(C)CC(NC(=O)N1CCCCCC1)C(=O)NC(Cc1ccc(OCc2ccccc2)cc1)C(=O)NCCC1CCCN1C` (centres unmarked) [Example 193, Azepane-1-carboxylic acid (1-{2-(4-benzyloxy-phenyl)-1-[2-(1-methyl-pyrrolidin-2-yl)-ethylcarbamoyl]-ethylcarbamoyl}-3-methyl-butyl)-amide], the figure is 3200 nM; as for `CCCN1CCCC(NC(=O)C(Cc2ccc(OCc3ccccc3)cc2)NC(=O)C(CC(C)C)NC(=O)N2CCCCCC2)C1` (centres unmarked) [Example 195, Azepane-1-carboxylic acid {1-[2-(4-benzyloxy-phenyl)-1-(1-propyl-piperidin-3-ylcarbamoyl)-ethylcarbamoyl]-3-methyl-butyl}-amide], 580 nM. On the same count and under the same terms, then `CC(C)CC(NC(=O)N1CCCCCC1)C(=O)NC(Cc1ccc(OCc2ccccc2)cc1)C(=O)NCCCN1CCCCC1C` (centres unmarked) [Example 196, Azepane-1-carboxylic acid (1-{2-(4-benzyloxy-phenyl)-1-[3-(2-methyl-piperidin-1-yl)-propylcarbamoyl]-ethylcarbamoyl}-3-methyl-butyl)-amide], with 700 nM; and `CC(C)CC(NC(=O)N1CCCCCC1)C(=O)NC(Cc1ccc(OCc2ccccc2)cc1)C(=O)NC1CCCN(C)C1c1ccccc1` (centres unmarked) [Example 197, Azepane-1-carboxylic acid {1-[2-(4-benzyloxy-phenyl)-1-(1-methyl-2-phenyl-piperidin-3-ylcarbamoyl)-ethylcarbamoyl]-3-methyl-butyl}-amide], with 220 nM. As for `CC(C)CC(NC(=O)N1CCCCCC1)C(=O)NC(Cc1ccc(OCc2ccccc2)cc1)C(=O)NC1CCCN(CC(C)C)C1` (centres unmarked) [Example 198, Azepane-1-carboxylic acid {1-[2-(4-benzyloxy-phenyl)-1-(1-isobutyl-piperidin-3-ylcarbamoyl)-ethylcarbamoyl]-3-methyl-butyl}-amide], the 50% inhibitory concentration (IC50) was 360 nM.

As for `CC(C)C[C@H](NC(=O)N1CCCCCC1)C(=O)N[C@@H](Cc1ccc(OCc2ccccc2)cc1)C(=O)N1CC(C)OC(C)C1` (stereo partly drawn) [Example 199, [S-(R*,R*)]-Azepane-1-carboxylic acid {1-[1-(4-benzyloxy-benzyl)-2-(2,6-dimethyl-morpholin-4-yl)-2-oxo-ethylcarbamoyl]-3-methyl-butyl}-amide], the IC50 amounted to 1800 nM. The same measure, in the same setting: then `CC(C)CC(NC(=O)N1CCCCCC1)C(=O)NC(Cc1ccc(OCc2ccccc2)cc1)C(=O)N1CCCC(C)C1` (centres unmarked) [Example 200, Azepane-1-carboxylic acid {1-[1-(4-benzyloxy-benzyl)-2-(3-methyl-piperidin-1-yl)-2-oxo-ethylcarbamoyl]-3-methyl-butyl}-amide], with 900 nM.
